This series can be described thus: Partition coefficient, log P of the compound. The format is physicochemical. To be noted: octanol/water.

Compound `O=C(Nc1ccc(Br)cc1)Nc1ccc(OC2=NS(=O)(=O)c3ccccc32)cc1` displayed a logP of 3.64.

`O=C(Nc1ccccc1)Nc1ccc2c(c1)C(Nc1ccc(Cl)cc1Cl)=NS2(=O)=O` came in with a logP of 3.57.

The compound `O=C(O)CCC(=O)Nc1ccc2c(c1)C(Nc1cccc(Br)c1)=NS2(=O)=O` showed a logP of 1.26.

Regarding `CCOC(=O)C(=CNc1ccc2c(c1)C(Nc1ccc(Cl)cc1)=NS2(=O)=O)C(=O)OCC`, the logP amounted to 2.39.

Consider `CCOC(=O)C(=CNc1ccc2c(c1)C(Nc1cccc(Br)c1)=NS2(=O)=O)C(=O)OCC`, for which the logP was determined as 2.48.

Take `O=C(Nc1ccc(Cl)cc1)Nc1ccc(OC2=NS(=O)(=O)c3ccccc32)cc1`: the logP stood at 3.55.

For orientation: logP means the decadic logarithm of the partition coefficient of the neutral form, usually between octanol and water. A low value points to a more hydrophilic compound.

The record behind these values is ChEMBL document CHEMBL2331514, “Structure-based design and synthesis of novel pseudosaccharine derivatives as antiproliferative agents and kinase inhibitors” (Eur J Med Chem, 2013).
